Experimental data reported in patent US20020061569A1, “Identification of essential genes in prokaryotes” (priority 2000, published 2002).

How the values were obtained:
[1] = system: E. coli transformed with IPTG-inducible antisense clones; experiment: Cell-based assay using antisense to genes encoding ribosomal proteins (Example 9)
Excerpt: First, pLex5BA (Krause et al., J. Mol. Biol. 274: 365 (1997), the disclosure of which is incorporated herein by reference in its entirety) vectors containing antisense constructs to either rplW or to elaD were introduced into separate E. coli cell populations. Vector introduction is a technique well known to those of ordinary skill in the art. The vectors of this example contain IPTG inducible promoters that drive the transcription of the antisense RNA in the presence of the inducer. However, those skilled in the art will appreciate that other inducible promoters may also be used. Suitable vectors are also well known in the art. Antisense clones to genes encoding different ribosomal proteins or to genes encoding proteins that are not involved in protein synthesis were utilized to test the effect of antisense transcription on cell sensitivity to the antibiotics known to bind to ribosomal proteins and inhibit protein synthesis. Antisense nucleic acids comprising a nucleotide sequence complementarty to the elaD, atpB&atpE, visC and yohH genes are referred to as AS-elaD, AS-atpB/E, AS-visC, AS-yohH respectively. These genes are not known to be involved in protein synthesis. […]
The cell populations containing vectors producing AS-elaD or AS-rplW were exposed to a range of IPTG concentrations in liquid medium to obtain the growth inhibitory dose curve for each clone (FIG. 1). First, seed cultures were grown to a particular turbidity measured by the optical density (OD) of the growth solution. […] The cells were grown for up to 15 hours and the extent of growth was determined by measuring the optical density of the cultures at 600 nm. […]
An example of a tetracycline dose response curve is shown in FIGS. 2A and 2B for the rplW and elaD genes, respectively. Cells were grown to log phase and then diluted into medium alone or medium containing IPTG at concentrations which give 20% and 50% growth inhibition as determined by IPTG dose response curves. […] The 96 well plates were incubated at 37° C. and the OD600 was read by a plate reader every 5 minutes for up to 15 hours. […]

[2] = system: Staphylococcus aureus RN4220; experiment: Inhibition of proliferation after xylose induction of antisense expression (Example 1); type: cell-based; settings: 2% xylose
Excerpt: In the case of Staphylococcus aureus, a novel inducible promoter system, XylT5, comprising a modified T5 promoter fused to the xylO operater from the xyla promoter of Staphylococcus aureus was used. The promoter is described in U.S. Provisional Patent Application Ser. No. 60/259,434, the disclosure of which is incorporated herein by reference in its entirety. Transcription from this hybrid promoter is inducible by xylose.
In the case of Staphylococcus aureus, a shotgun library of Staphylococcus aureus genomic fragments was cloned into the vector pXyIT5-P15a, which harbors the Xy1T5 inducible promoter. […]
The purified library was then transformed into electrocompetent Staphylococcus aureus RN4220. […] Gridded plates were incubated 16 hours at 37° C., and then manually scored for arrayed colonies that were growth-compromised in the presence of xylose.
Arrayed colonies that were growth-sensitive on medium containing 2% xylose, yet were able to grow on similar medium lacking xylose, were subjected to further growth sensitivity analysis as follows: Colonies from the plate lacking xylose were manually picked and inoculated into individual wells of a 96 well culture dish containing LBG+CM15, and were incubated for 16 hours at 37° C. […] Clones that grew similarly at all dilutions on both media were scored as a negative and were no longer considered.

## CCn1cc(C(=O)O)c(=O)c2ccc(C)nc21 [Nalidixic acid]
[1]; antibiotics which do not inhibit protein synthesis
  sensitivity of the clone transcribing antisense to rplL and rplJ (AS-rplL/J): does not show increased sensitivity

## CC[C@H]1OC(=O)[C@H](C)[C@@H](O[C@H]2C[C@@](C)(OC)[C@@H](O)[C@H](C)O2)[C@H](C)[C@@H](O[C@@H]2O[C@H](C)C[C@H](N(C)C)[C@H]2O)[C@](C)(O)C[C@@H](C)C(=O)[C@H](C)[C@@H](O)[C@]1(C)O [Erythromycin]
[1]; AS-atpB/E, AS-visC, AS-elaD, AS-yohH
  sensitivity of cells transcribing antisense to genes not involved in protein synthesis: do not
[1]; AS-rplL, AS-rplW, clones to L7/L12, L10, L22, L18, rRNA, Elongation Factor G, with vs without IPTG
  sensitivity of cells transcribing antisense to protein synthesis genes: increased sensitivity

B1: S1M10000001A05: clone containing the nucleic acid which inhibits Staphylococcus aureus proliferation (nucleic acid, listed as Staphylococcus aureus)
DNA: GATCATATAGAATGACATCCGCTTCACGTATTAAACGCTCAGCCTTTTTCGTCAAATAATTCGGATTACCTGGACCCGCACCTATCAAGTAAACCTTGCCATATTCCTCTACAGACATATATATACGTTCCCGTCTGTAACTTCTACCTCATAAACATCTACACAACCTTCATCAGGTTCTTGAACAATACCTGTATTTAAATCAATTTTTT
[2]
  growth sensitivity upon induction of antisense transcription: inhibits Staphylococcus aureus proliferation
